Source: publication PMC11845477, “Exploring the principles behind antibiotics with limited resistance” (Nature Communications, 2025)

Test system: E. coli ATCC 25922 (SEN) and E. coli NCTC13846 (MDR)
Assay: microbe, parasite or virus in culture
Type: cell-based, Escherichia coli
Conditions: for MIC: across three biological replicates
Experimental: This study focused on multiple bacterial strains, as follows. For the FoR and ALE experiments, 2 strains per species were chosen: E. coli ATCC 25922, K. pneumoniae ATCC 10031, A. baumannii ATCC 17978, and P. aeruginosa ATCC BAA-3107 as sensitive (SEN) strains, and E. coli NCTC13846, K. pneumoniae ATCC 700603, A. baumannii ATCC BAA-1605 and P. aeruginosa LESB58 as multi-drug resistant (MDR) strains. Functional metagenomic screens were performed with E. coli ATCC 25922 and K. pneumoniae ATCC 10031 strains. To determine the dose-kill properties of the different antibiotics, an E. coli strain (ATCC 25922) expressing a yellow fluorescent protein (pZS2R, YFP, CHL^R) and a red fluorescent protein (pZS2R, mCherry, CHL^R) was used.
Unless otherwise indicated, cation-adjusted Mueller-Hinton Broth 2 (MHB, Millipore) medium was used throughout the study, except for SCH79797 (SCH).
A robotic liquid handling system was used to automatically prepare a 11 to 16-step serial dilution in 384-well microtiter plates (Greiner). A final concentration of 5 × 10^5 bacterial cells per mL were inoculated into each well containing 60 µL MHB medium. Bacterial cultures were incubated at 37 °C with continuous shaking (Infors shaker, 900 rpm with 3 mm throw) for 18 hours (2 replicates from each). Cell growth was monitored by measuring the optical density (OD600 values, using Biotek Synergy microplate reader). MIC was defined as the antibiotic concentration of complete growth inhibition (i.e., OD600 < 0.05). Relative MIC was calculated as follows:1 relativeMIC=MICevolved/MICancestor

[1] = Escherichia coli, Escherichia coli ATCC 25922 (EC-SEN)
[2] = Escherichia coli, Escherichia coli NCTC 13846 (EC-MDR)
[3] = Escherichia coli ATCC 25922 (EC-SEN), ancestor strain, sheet fig 2a
[4] = Escherichia coli ATCC 25922 (EC-SEN)
[5] = Escherichia coli NCTC 13846 (EC-MDR)
[6] = ancestor EC-SEN (Escherichia coli ATCC 25922)

Compound	MIC [1] [µg/mL]	MIC [2] [µg/mL]	MIC of ancestor (Escherichia coli ATCC 25922 (EC-SEN), ancestor) [µg/mL]	MIC of ancestor [3] [µg/mL]	MIC of ancestor (E. coli ATCC 25922 (EC-SEN), ancestor strain, sheet fig 2a) [µg/mL]	MIC [4] [µg/mL]	MIC [5] [µg/mL]	MIC of ancestor [6] [µg/mL]	MIC of ancestor (E. coli NCTC 13846 (EC-MDR), ancestor strain, sheet fig 2a) [µg/mL]	MIC of ancestor (ancestor EC-MDR (Escherichia coli NCTC 13846)) [µg/mL]
CN[C@@H]1[C@@H](O[C@H]2O[C@H](CO)[C@@H](N)[C@H](O)[C@H]2O)OC2C[C@@H](N)[C@@H](O[C@H]3[C@H](O)[C@@H](O)[C@H](N)C[C@@H]3N)OC2[C@@H]1O (some centres unmarked) [Apramycin]	16	8								
CN(C)c1cc(CNCC(C)(C)C)c(O)c2c1C[C@H]1C[C@H]3[C@H](N(C)C)C(O)=C(C(N)=O)C(=O)[C@@]3(O)C(O)=C1C2=O [Omadacycline]	2	16	2	2						
CC(C)c1ccc(Cn2ccc3c4c(N)nc(NC5CC5)nc4ccc32)cc1 [SCH79797]					4	4	16	4		
C[C@@H](O)[C@H]1C(=O)N2C(C(=O)O)=C(S[C@H]3CC[S@@+]([O-])C3)S[C@H]12 [Sulopenem]						0.0625	0.03125	0.0312	0.0312	0.0312
C[C@@H]1CN2c3c(cc4c(N5C(=O)OC[C@@H]5C)noc4c3F)CC3(C(=O)NC(=O)NC3=O)[C@H]2[C@H](C)O1 [Zoliflodacin]	2	16		2				2		
Tridecaptin M152-P3				4		4	8	4		
